Counter-ions that a name gives are not always drawn. Like-named read-outs stand apart in the source and are kept apart here.
Experiments:
platelet aggregation [1] = assay: Inhibition of platelet aggregation in vitro (rat blood); assay type: cell-based;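 on Inhibition of platelet aggregation in vitro (rat blood) in μM: aggregation induced by ADP added as 4 µL of a 250 µM solution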
In short: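 Platelet-rich plasma from male Sprague-Dawley rats (250-300 g), prepared by centrifugation at 300 g for 5 minutes. Aggregation measured at 37° C in an aggregometer. Percentage inhibition derived from area under the absorbance curve over 6 minutes.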

platelet aggregation [2] = assay: Inhibition of platelet aggregation ex vivo (rat blood); assay type: in vivo; settings: for inhibition at 10 mg/kg: read-out: Inhibition of platelet aggregation ex vivo (rat blood) in %, Gavage (oral) 10 mg/kg
Experimental: Inhibition of Platelet Aggregation Ex Vivo (Rat Blood)
Male rats of the Sprague-Dawley strain, weighing 250-300 g, are used at a rate of 6 animals per batch. Each test compound is diluted in a solution of glucose-containing water (glucose 5%) containing 5% of cremophore and 3% of glycofurol.
The compounds according to the invention are administered by stomach tube (10 ml/kg at 1 mg/ml) two hours before taking the sample or by infusion (1 ml/kg at 10 mg/ml) two hours before taking the sample.
The platelet-rich plasma (PRP) is obtained by centrifugation of the blood at 300 g for 5 minutes, and the measurements of platelet aggregation are performed as described above.
The results are calculated using the area under the curve of absorbance measured for 6 minutes, and expressed as percentage (%) of inhibition.

[3] = 0.1 h, rat platelet-rich plasma, ADP-induced aggregation, area under the curve of absorbance for 6 minutes, read-out: Inhibition of platelet aggregation in vitro (rat blood);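 on Inhibition of platelet aggregation in vitro (rat blood) in μM: aggregation induced by ADP added as 4 µL of a 250 µM solution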
[4] = rat, 10 mg/kg, two hours before taking the sample
[5] = Platelet, 2 h, rat, gavage (oral), 10 mg/kg, two hours before taking the sample
[6] = rat, gavage (oral), 10 mg/kg, two hours before taking the sample
[7] = rat blood, in vitro, read-out: Inhibition of platelet aggregation in vitro (rat blood);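 on Inhibition of platelet aggregation in vitro (rat blood) in μM: aggregation induced by ADP added as 4 µL of a 250 µM solution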

Row | IC50 (platelet aggregation [1]; [7]) | Compound | melting point | Inhibition of platelet aggregation ex vivo (rat blood) in %, Gavage (oral) 10 mg/kg (platelet aggregation [2]; [6]) | further results
1 |  | CCCC(=O)c1cnn(-c2ccc(NC(=O)c3cn(CC(=O)N4CCN(C)C(C(=O)NC)C4)c4ccc(Cl)cc34)cc2)c1C (stereo not shown) [Compound 272, N-[4-(4-butyryl-5-methyl-1H-pyrazol-1-yl)phenyl]-5-chloro-1-{2-[4-methyl-3-(methylcarbamoyl)piperazin-1-yl]-2-oxoethyl}-1H-indole-3-carboxamide] | 274 °C |  | IC50 (platelet aggregation [1]; [3]): 0.21 µM
2 |  | CCCC(=O)c1cnn(-c2ccc(NC(=O)c3cn(CC(=O)N4CCN5CCNC(=O)C5C4)c4ccc(Cl)cc34)cc2)c1C.Cl (stereo not shown) [Compound 273, N-[4-(4-Butyryl-5-methyl-1H-pyrazol-1-yl)phenyl]-5-chloro-1-[2-oxo-2-(9-oxooctahydro-2H-pyrazino[1,2-a]pyrazin-2-yl)ethyl]-1H-indole-3-carboxamide hydrochloride] | 230 °C |  | IC50 (platelet aggregation [1]; [3]): 0.29 µM
3 |  | CCCC(=O)c1cnn(-c2ccc(NC(=O)c3cn(CC(=O)N4CCN(CCOC(C)=O)CC4)c4ccc(Cl)cc34)cc2)c1C.Cl [Compound 275, 2-{4-[(3-{[4-(4-Butyryl-5-methyl-1H-pyrazol-1-yl)phenyl]carbamoyl}-5-chloro-1H-indol-1-yl)acetyl]piperazin-1-yl}ethyl acetate hydrochloride] | 160 °C |  | IC50 (platelet aggregation [1]; [3]): 0.2 µM
4 |  | CCCC(=O)c1cnn(-c2ccc(NC(=O)c3cn(CC(=O)O)c4ccc(C)cc34)cc2)c1C [Compound 11] |  |  | Inhibition of platelet aggregation ex vivo (rat blood) in %, Infusion (Intravenous) 10 mg/kg (platelet aggregation [2]; [4]): 40.7%; IC50 (platelet aggregation [1]; rat platelet-rich plasma, ADP-induced aggregation, area under the curve of absorbance for 6 minutes, read-out: Inhibition of platelet aggregation in vitro (rat blood)): 9.6 µM
5 |  | CCCC(=O)c1cnn(-c2ccc(NC(=O)c3cn(CC(=O)N4CCN(CC(C)=O)CC4)c4ccc(Cl)cc34)cc2)c1C.Cl [Compound 276, N-[4-(4-Butyryl-5-methyl-1H-pyrazol-1-yl)phenyl]-5-chloro-1-{2-oxo-2-[4-(2-oxopropyl)piperazin-1-yl]ethyl}-1H-indole-3-carboxamide hydrochloride] | 248 °C |  | inhibition at 10 mg/kg (platelet aggregation [2]; [5]): 49.9%; IC50 (platelet aggregation [1]; [3]): 0.22 µM
6 |  | CCCC(=O)c1cnn(-c2ccc(NC(=O)c3cn(CC(=O)N4CCN(C)CC4)c4ccc(Cl)cc34)nn2)c1C [Compound 28, N-[6-(4-Butyryl-5-methyl-1H-pyrazol-1-yl)pyridazin-3-yl]-5-chloro-1-[2-(4-methylpiperazin-1-yl)-2-oxoethyl]-1H-indole-3-carboxamide hydrochloride] |  |  | inhibition at 3 mg/kg (platelet aggregation [2]; Rattus norvegicus, Platelet, iv, 2 h, read-out: Inhibition of platelet aggregation ex vivo (rat blood) in %, Infusion (Intravenous) 3 mg/kg): 79%; inhibition at 10 mg/kg (platelet aggregation [2]; Rattus norvegicus, Platelet, po, 2 h): 73.5%; IC50 (platelet aggregation [1]; Rattus norvegicus, Platelet, 0.1 h, read-out: Inhibition of platelet aggregation in vitro (rat blood) in μM): 0.06 µM
7 | 0.12 µM | CCCC(=O)c1cnn(-c2ccc(NC(=O)c3cn(CC(=O)N4CCCC4C(F)(F)F)c4ccc(Cl)cc34)cc2)c1C (stereo not shown) [Compound 170] |  | 71.5% | 
8 |  | CCCC(=O)c1cnn(-c2ccc(NC(=O)c3cn(CC(=O)N4CC(C)N(C)C(C)C4)c4ccc(Cl)cc34)cc2)c1C.Cl (stereo not shown) [Compound 262, N-[4-(4-Butyryl-5-methyl-1H-pyrazol-1-yl)phenyl]-5-chloro-1-[2-oxo-2-(3,4,5-trimethylpiperazin-1-yl)ethyl]-1H-indole-3-carboxamide hydrochloride] | 217 °C |  | inhibition at 10 mg/kg (platelet aggregation [2]; [5]): 58.8%
9 | 0.32 µM | CCCC(=O)c1cnn(-c2ccc(NC(=O)c3cn(CC(=O)N4CCN(C)CC4)c4ccc(Cl)cc34)cc2)c1C.Cl [Compound 115] |  | 50.6% | Inhibition of platelet aggregation ex vivo (rat blood) in %, Infusion (Intravenous) 10 mg/kg (platelet aggregation [2]; [4]): 78.2%
10 | 0.24 µM | CCCC(=O)c1cnn(-c2ccc(NC(=O)c3cn(CC(=O)N4CCN(C(C)(C)COC)CC4)c4ccc(Cl)cc34)cc2)c1C.Cl [Compound 180] |  | 65.1% | 
11 | 0.19 µM | CCCC(=O)c1cnn(-c2ccc(NC(=O)c3cn(CC(=O)N4CCN(Cc5ccc(F)cc5)CC4)c4ccc(C)cc34)cc2)c1C.Cl [Compound 147] |  | 74.9% | 
12 | 0.3 µM | CCCC(=O)c1cnn(-c2ccc(NC(=O)c3cn(CC(=O)N4CCN(C)CC4)c4cc(C)c(C)cc34)cc2)c1C.Cl [Compound 107] |  | 36.8% | Inhibition of platelet aggregation ex vivo (rat blood) in %, Infusion (Intravenous) 10 mg/kg (platelet aggregation [2]; [4]): 57.8%
13 |  | CCCC(=O)c1cnn(-c2ccc(NC(=O)c3cn(CC(=O)N4CCN5CCN(C)C(=O)C5C4)c4ccc(Cl)cc34)cc2)c1C (stereo not shown) [Compound 274, N-[4-(4-Butyryl-5-methyl-1H-pyrazol-1-yl)phenyl]-5-chloro-1-[2-(8-methyl-9-oxooctahydro-2H-pyrazino[1,2-a]pyrazin-2-yl)-2-oxoethyl]-1H-indole-3-carboxamide hydrochloride] |  |  | inhibition at 10 mg/kg (platelet aggregation [2]; [5]): 82.7%; IC50 (platelet aggregation [1]; [3]): 0.1 µM
14 | 0.37 µM | CCCC(=O)c1cnn(-c2ccc(NC(=O)c3cn(CC(=O)N4CCN(C)CC4C)c4ccc(Cl)cc34)cc2)c1C.Cl (stereo not shown) [Compound 177] |  | 63.9% | 
15 | 0.25 µM | CCCC(=O)c1cnn(-c2ccc(NC(=O)c3cn(CC(=O)N4CCN(CCOCCOC)CC4)c4ccc(Cl)cc34)cc2)c1C.Cl [Compound 145] |  | 53.7% | 
16 | 0.18 µM | CCCC(=O)c1cnn(-c2ccc(NC(=O)c3cn(CC(=O)N4CCN(CCOC)CC4)c4ccc(C)cc34)cc2)c1C.Cl [Compound 119] |  | 61.1% | 
17 | 0.32 µM | CCCC(=O)c1cnn(-c2ccc(NC(=O)c3cn(CC(=O)N4CCN(CCF)CC4)c4ccc(C)cc34)cc2)c1C.Cl [Compound 133] |  | 74.2% | 
18 | 0.13 µM | CCCC(=O)c1cnn(-c2ccc(NC(=O)c3cn(CC(=O)N4CCN(CCF)CC4)c4ccc(Cl)cc34)cc2)c1C.Cl [Compound 142] |  | 76.5% | 
19 | 0.17 µM | CCCC(=O)c1cnn(-c2ccc(NC(=O)c3cn(CC(=O)N4CCN(C(C)COC)CC4)c4ccc(Cl)cc34)cc2)c1C.Cl (stereo not shown) [Compound 179] |  | 76.1% | 
20 |  | CCCC(=O)c1cnn(-c2ccc(NC(=O)c3cn(CC(=O)N4CC(C)N(CCOC)C(C)C4)c4ccc(Cl)cc34)cc2)c1C.Cl (stereo not shown) | 187 °C |  | 

Source: US8623862B2, “Derivatives of N-[(1H-pyrazol-1-yl)aryl]-1H-indole or 1H-indazole-3-carboxamide, preparation thereof and applications thereof in therapeutics” (Sanofi, priority 2011, dated 2014)
